Reference: patent publication US8435990B2, “Dihydropyrimidone amides as P2X7 modulators” (Roche Palo Alto LLC, priority 2009, dated 2013)

Biological target: T1, human P2X7 (Homo sapiens, UniProt Q99572)
T1 construct: 1321N1 cells stably expressing the full length human P2X7 gene (1321N1-hP2X7)
T1 sequence (Q99572 1-595): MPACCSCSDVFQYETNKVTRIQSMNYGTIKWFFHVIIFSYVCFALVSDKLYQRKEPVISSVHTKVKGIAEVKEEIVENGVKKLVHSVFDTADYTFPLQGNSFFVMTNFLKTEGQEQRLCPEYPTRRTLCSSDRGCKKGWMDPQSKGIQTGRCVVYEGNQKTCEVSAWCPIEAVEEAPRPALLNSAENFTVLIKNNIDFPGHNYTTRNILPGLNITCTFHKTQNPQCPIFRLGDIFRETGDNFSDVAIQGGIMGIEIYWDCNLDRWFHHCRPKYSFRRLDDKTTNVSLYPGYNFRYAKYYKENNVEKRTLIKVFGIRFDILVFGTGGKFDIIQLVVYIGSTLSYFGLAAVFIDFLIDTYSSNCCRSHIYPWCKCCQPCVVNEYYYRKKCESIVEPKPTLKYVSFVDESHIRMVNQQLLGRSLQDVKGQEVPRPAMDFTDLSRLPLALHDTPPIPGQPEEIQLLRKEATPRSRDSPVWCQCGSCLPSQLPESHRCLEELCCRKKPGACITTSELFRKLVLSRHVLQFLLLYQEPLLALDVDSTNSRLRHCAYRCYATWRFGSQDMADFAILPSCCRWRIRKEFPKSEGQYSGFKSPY
Test: P2X7 modulator pIC50 of Table 1 (assay not given; Intracellular Calcium Flux (FLIPR) Assay assumed)
Format: cell-based
Experimental: Intracellular Calcium Flux (FLIPR) Assay
Stock solutions of compounds were prepared from powders as a 10 mM DMSO stock solution. These solutions were stored at RT during the two week period of these experiments to prevent freeze-thaw of the DMSO stocks. The DMSO stocks were added to the appropriate assay buffer at a concentration of 10 μM, and then diluted serially to the final concentrations that were tested. No observable precipitate was formed at any time during this process. The aqueous solutions of compounds as well as ATP (Sigma A7699) and BzATP (Sigma B6396) were prepared fresh for each day of experiment.
1321N1 cells stably expressing the full length human P2X7 gene (1321N1-hP2X7) and HEK293 cells stably expressing the full length rat P2X7 gene (HEK293-rP2X7) were obtained from the Roche Cell Culture Facility. 1321N1-hP2X7 cells were grown in Dulbecco's Modified Eagle's Medium (DMEM) high glucose supplemented with 10% FBS and 250 μg/mL G418. HEK293-rP2X7 cells were grown in DMEM/F-12 supplemented with 10% FBS, 1 mM CaCl2, 2 mM MgCl2, 2 mM L-Glutamine and 500 μg/ml G418. Cells were split such that they never became >70% confluent.
On the day prior to the experiment, 1321N1-hP2X7 or HEK293-rP2X7 cells were released into suspension with calcium-free PBS+Versene and washed by centrifugation with calcium-free PBS to remove the Versene. Cells were resuspended in growth medium at a density of 2.5×10^5 cells/mL and seeded into black walled, clear bottom 96 well plates (50,000 cells/well) approximately 18 hr prior to intracellular calcium flux experiments.
On the day of the experiment, plates were washed with FLIPR buffer (calcium- and magnesium-free Hank's Balanced Salt Solution (HBSS) supplemented with 10 mM Hepes, 2.5 mM probenecid and 2 mM calcium chloride) using a BIO-TEK 96 channel plate washer and incubated with […] fluo-3 dye at 37° C. for one hr. The dye was then removed by plate washing and the cells were allowed to equilibrate for 20 min at room temperature with antagonist or vehicle (FLIPR buffer). Agonist (100 μM BzATP final concentration for hP2X7; 5μM BzATP final concentration or rP2X7) was added online with the FLIPR and fluorescence measurements made at 1 sec intervals for 60 sec followed by 3 sec intervals for a further 4 min (5 min total). A final addition of 5 μM ionomycin was made and the maximal BzATP-evoked fluorescence normalized to the maximal ionomycin-evoked fluorescence.

Row | IC50 | Compound
1 | 106 nM | Cc1ccc(-n2ncc(=O)n(C)c2=O)cc1NC(=O)C1=CN(C)C(=O)N[C@H]1c1ccc(F)cc1 [Compound 35, (S)-4-(4-Fluoro-phenyl)-1-methyl-2-oxo-1,2,3,4-tetrahydro-pyrimidine-5-carboxylic acid [2-methyl-5-(4-methyl-3,5-dioxo-4,5-dihydro-3H-[1,2,4]triazin-2-yl)-phenyl]-amide]
2 | 339 nM | Cc1ccc(-c2ccnn(C)c2=O)cc1NC(=O)C1=CN(C)C(=O)NC1C1CCC(F)(F)CC1 (stereo not drawn) [Compound 52, 4-(4,4-Difluoro-cyclohexyl)-1-methyl-2-oxo-1,2,3,4-tetrahydro-pyrimidine-5-carboxylic acid [2-methyl-5-(2-methyl-3-oxo-2,3-dihydro-pyridazin-4-yl)-phenyl]-amide]
3 | 3470 nM | Cc1ccc(-c2ccnn(C)c2=O)cc1NC(=O)C1=CN(C)C(=O)N[C@H]1c1ccccc1 [Compound 57, (S)-1-Methyl-2-oxo-4-phenyl-1,2,3,4-tetrahydro-pyrimidine-5-carboxylic acid [2-methyl-5-(2-methyl-3-oxo-2,3-dihydro-pyridazin-4-yl)-phenyl]-amide]
4 | 15.5 nM | Cc1ccc2c(C)c(NC(=O)C3=CN(C)C(=O)N[C@H]3c3ccc(F)cc3)ccc2n1 [Compound 65, (S)-4-(4-Fluoro-phenyl)-1-methyl-2-oxo-1,2,3,4-tetrahydro-pyrimidine-5-carboxylic acid (2,5-dimethyl-quinolin-6-yl)-amide]
5 | 40.3 nM | Cc1ccc(=O)n(-c2ccc(C)c(NC(=O)C3=CN(C)C(=O)N[C@H]3c3ccc(F)cc3)c2)n1 [Compound 27, (S)-4-(4-Fluoro-phenyl)-1-methyl-2-oxo-1,2,3,4-tetrahydro-pyrimidine-5-carboxylic acid [2-methyl-5-(3-methyl-6-oxo-6H-pyridazin-1-yl)-phenyl]-amide]
6 | 54.3 nM | Cc1ccc(-c2ccnn(C)c2=O)cc1NC(=O)C1=CN(C)C(=O)N[C@H]1c1cccc(F)c1 [Compound 44, (S)-4-(3-Fluoro-phenyl)-1-methyl-2-oxo-1,2,3,4-tetrahydro-pyrimidine-5-carboxylic acid [2-methyl-5-(2-methyl-3-oxo-2,3-dihydro-pyridazin-4-yl)-phenyl]-amide]
7 | 14.5 nM | Cc1cc2cnn(CCO)c2cc1NC(=O)C1=CN(C)C(=O)N[C@H]1c1ccc(F)cc1 [Compound 42]
8 | 29.9 nM | COC[C@H](O)Cn1nccc(-c2ccc(C)c(NC(=O)C3=CN(C)C(=O)N[C@H]3c3ccc(F)cc3)c2)c1=O [Compound 43, (S)-4-(4-Fluoro-phenyl)-1-methyl-2-oxo-1,2,3,4-tetrahydro-pyrimidine-5-carboxylic acid {5-[2-((R)-2-hydroxy-3-methoxy-propyl)-3-oxo-2,3-dihydro-pyridazin-4-yl]-2-methyl-phenyl}-amide]
9 | 138 nM | CN1C=C(C(=O)Nc2cc(N3CCCC3=O)ccc2Br)[C@H](c2ccc(F)cc2)NC1=O [Compound 45, (S)-4-(4-Fluoro-phenyl)-1-methyl-2-oxo-1,2,3,4-tetrahydro-pyrimidine-5-carboxylic acid [2-bromo-5-(2-oxo-pyrrolidin-1-yl)-phenyl]-amide]
10 | 11 nM | COc1ccc(-c2ccc(C)c(NC(=O)C3=CN(C)C(=O)N[C@H]3c3ccc(F)cc3)c2)nn1 [Compound 55, (S)-4-(4-Fluoro-phenyl)-1-methyl-2-oxo-1,2,3,4-tetrahydro-pyrimidine-5-carboxylic acid [5-(6-methoxy-pyridazin-3-yl)-2-methyl-phenyl]-amide]
11 | 43 nM | COCCN1C=C(C(=O)Nc2cc(OCCO)c(Cl)cc2C)[C@H](c2ccc(F)cc2)NC1=O [Compound 39, (S)-4-(4-Fluoro-phenyl)-1-(2-methoxy-ethyl)-2-oxo-1,2,3,4-tetrahydro-pyrimidine-5-carboxylic acid [4-chloro-5-(2-hydroxy-ethoxy)-2-methyl-phenyl]-amide]
12 | 16.8 nM | Cc1ccc(-c2ccc(=O)n(CCO)n2)cc1NC(=O)C1=CN(C)C(=O)N[C@H]1c1ccc(F)cc1 [Compound 59, (S)-4-(4-Fluoro-phenyl)-1-methyl-2-oxo-1,2,3,4-tetrahydro-pyrimidine-5-carboxylic acid {5-[1-(2-hydroxy-ethyl)-6-oxo-1,6-dihydro-pyridazin-3-yl]-2-methyl-phenyl}-amide]

Second part, the compound before the results:

Row | Compound | IC50
13 | Cc1cc(-c2ccc(C)c(NC(=O)C3=CN(C)C(=O)N[C@H]3c3ccc(F)cc3)c2)n[nH]1 [Compound 7, (S)-4-(4-Fluoro-phenyl)-1-methyl-2-oxo-1,2,3,4-tetrahydro-pyrimidine-5-carboxylic acid [2-methyl-5-(5-methyl-1H-pyrazol-3-yl)-phenyl]-amide] | 35.1 nM
14 | COc1cc(C)c(NC(=O)C2=CNC(=O)N(C)C2c2ccc(F)cc2)cc1OC (stereo not drawn) [Compound 13, 4-(4-Fluoro-phenyl)-3-methyl-2-oxo-1,2,3,4-tetrahydro-pyrimidine-5-carboxylic acid (4,5-dimethoxy-2-methyl-phenyl)-amide] | 85.1 nM
15 | Cc1c(NC(=O)C2=CN(C)C(=O)N[C@H]2c2ccc(F)cc2)cccc1-c1ccn[nH]1 [Compound 23, (S)-4-(4-Fluoro-phenyl)-1-methyl-2-oxo-1,2,3,4-tetrahydro-pyrimidine-5-carboxylic acid [2-methyl-3-(2H-pyrazol-3-yl)-phenyl]-amide] | 184 nM
16 | COC[C@H](O)Cn1nc(-c2ccc(C)c(NC(=O)C3=CN(C)C(=O)N[C@H]3c3ccc(F)cc3)c2)cc1C [Compound 24, (S)-4-(4-Fluoro-phenyl)-1-methyl-2-oxo-1,2,3,4-tetrahydro-pyrimidine-5-carboxylic acid {5-[1-((R)-2-hydroxy-3-methoxy-propyl)-5-methyl-1H-pyrazol-3-yl]-2-methyl-phenyl}-amide] | 50.7 nM
17 | Cc1cc(-c2ccc(C)c(NC(=O)C3=CNC(=O)N[C@@H]3c3ccc(F)cc3)c2)n[nH]1 [Compound 3, (R)-4-(4-Fluoro-phenyl)-2-oxo-1,2,3,4-tetrahydro-pyrimidine-5-carboxylic acid [2-methyl-5-(5-methyl-1H-pyrazol-3-yl)-phenyl]-amide] | 173 nM
18 | Cc1cc(Cl)c(OCCO)cc1NC(=O)C1=CN(C)C(=O)N[C@H]1c1ccc(F)cc1 [Compound 8, (S)-4-(4-Fluoro-phenyl)-1-methyl-2-oxo-1,2,3,4-tetrahydro-pyrimidine-5-carboxylic acid [4-chloro-5-(2-hydroxy-ethoxy)-2-methyl-phenyl]-amide] | 22.9 nM
19 | COC[C@H](O)Cn1c(=O)cnn(-c2ccc(C)c(NC(=O)C3=CN(C)C(=O)N[C@H]3c3ccc(F)cc3)c2)c1=O [Compound 25, (S)-4-(4-Fluoro-phenyl)-1-methyl-2-oxo-1,2,3,4-tetrahydro-pyrimidine-5-carboxylic acid {5-[4-((R)-2-hydroxy-3-methoxy-propyl)-3,5-dioxo-4,5-dihydro-3H-[1,2,4]triazin-2-yl]-2-methyl-phenyl}-amide] | 91.2 nM
20 | COc1cc(C)c(NC(=O)C2=CN(CCO)C(=O)NC2c2ccc(F)cc2)cc1OC (stereo not drawn) [Compound 12, 4-(4-Fluoro-phenyl)-1-(2-hydroxy-ethyl)-2-oxo-1,2,3,4-tetrahydro-pyrimidine-5-carboxylic acid (4,5-dimethoxy-2-methyl-phenyl)-amide] | 111 nM
21 | COc1cc(C)c(NC(=O)C2=CNC(=O)NC2c2ccc(F)cc2)cc1OC (stereo not drawn) [Compound 1, 4-(4-Fluoro-phenyl)-2-oxo-1,2,3,4-tetrahydro-pyrimidine-5-carboxylic acid (4,5-dimethoxy-2-methyl-phenyl)-amide] | 34.7 nM
